Columns and labels:
Type in all cases: in vivo, Balb/c mice
CD4+CD8+ thymocytes = test: Flow cytometry assay for detection of CD4 and CD8 expression in thymocytes; conditions: DNFB-induced DTH mice, topical application; control and model groups about 76%
Protocol: (§1) Male Balb/c mice, weighing 19-21 g were sensitized through topical application of 20 μl of 0.5% (v/v) DNFB in acetone onto the shaved abdomen on days 1 and 2. Challenge was then preformed on day 6 by applying DNFB (20 μl, 0.5%, v/v) on the left inner and outer ear surfaces of mice. DMY (at dosage of 1 mg/ear) and/or DEX (1.5625 μg/ml) dissolved in acetone was topically applied (20 μl) to the ears at 2nd, 24th, 48th, 72nd, hour after the challenge. The edema was calculated as the difference between the thickness of left and right ear at the 24th, 48th and 72nd h after challenge. […] The control 100 group was treated only with DNFB or solvent solution.
The animal model was conducted as mentioned in section 1.1 of Example 1 above, in which after the mice were sacrificed by cervical dislocation, the thymocytes were isolated and washed by PBS. The cells were stained by 20 μL CD4 with CD8 for 30 min avoiding from light, followed by 4% PFA to fix the cells, and flow cytometery was then conducted.

thymocytes = test: Flow cytometry assay for detection of thymocyte apoptosis (Annexin V-FITC and PI); conditions: DNFB-induced DTH mice, model group about 72%
Protocol: The animal model was conducted as mentioned in section 1.1 of Example 1 above. Thymocytes were washed by cold PBS and binding buffer, resuspended in binding buffer including Annexin V-FITC, and then incubated at room temperature for 10 minutes. After adding the binding buffer containing PI, the cells were incubated on ice for another 15 minutes. The data was analyzed by flow cytometry within one hour.

[1] = test system: signal-joint TRECs in thymocytes; test: Quantification of signal-joint TRECs; conditions: compared with the DEX-treated animals
Protocol: as §1
DNA was isolated from purified thymic T cells using DNA purification kit. PCR was performed using mδRec- and ψJα-specific primers and an mδRec-ψJα fluorescent probe as described previously. The standard curves for murine TRECs were generated using a mδRec-ψJα TREC PCR product cloned into a pc DNA3.1 plasmid from Prof. Gregory D. Sempowski (Duke Human Vaccine Institute, Duke University Medical Center, Durham, N.C., USA.). The assay was performed on slides according to previous study.

[2] = test system: CD4+ and CD8+ cells in the ears; test: Immunohistochemical staining of CD4 and CD8 in ear sections; conditions: immunohistochemical analysis; in comparison with the Model Group
Protocol: as §1
(§2) The animal model was conducted as mentioned in section 1.1 of Example 1 above. […] Antigens were retrieved by steaming samples in DAKO target retrieval buffer (DAKO) for 20 minutes. After the nonspecific binding sites were blocked, the sections were incubated overnight at 4° C. with CD4 or CD8 antibodies (Phoenix Pharmaceuticals).
(§3) Sections were stained with 3,3′-diaminobenzidine substrate and counterstained with Meyer hematoxylin and eosin.

[3] = test system: mononuclear cell infiltrate in the ear; test: Histological examination of ear inflammation; conditions: DNFB-treated mice, ear histology
Protocol: as §1, §2, §3

[4] = test system: ear edema of DTH mice induced by DNFB; test: Delay-type hypersensitivity test (DTHT) in mice: ear edema; conditions: topical, DMY 1 mg/ear and/or DEX 1.5625 μg/ml, 24th, 48th, 72nd h after challenge, vs Model Group
Protocol: as §1
FIGS. 1a and 1b show the effects of DEX, DMY and the combinational application of DMY and DEX (illustrated as the DMY+DEX group) on treatment of ear edema of DTH mice induced by DNFB. Edema as expressed as the increase in ear thickness (ΔT in micrometer±S.E.M.) in the DNFB experiments. Percentages of inhibition (% I) for each measurement were calculated from values for the DEX, DMY and DMY+ DEX groups with respect to those for the Model Group. Statistically significant differences with respect to the Model Group are expressed as *P<0.05 and **P<0.01 (Dunnett's t test).
The animal model was conducted as mentioned in section 1.1 of Example 1 above. […]

thymic architecture = test: Histological examination of thymus; conditions: compared with DEX-treated animals
Protocol: as §1

Row | SMILES | CD4+CD8+ T cell population in thymus (CD4+CD8+ thymocytes) [%] | ratio of thymocyte apoptosis (thymocytes) [%] | levels of signal-joint TRECs in thymocytes [1] | accounts of CD4+ and CD8+ cells in the treated ears [2] | number of inflammatory cells in the ear [3] | effect on ear edema (increase in ear thickness, percentages of inhibition) [4] | thymic architecture (corticomedullary junctions) (thymic architecture)
1 | C[C@@H]1C[C@H]2[C@@H]3CCC4=CC(=O)C=C[C@]4(C)[C@@]3(F)[C@@H](O)C[C@]2(C)[C@@]1(O)C(=O)CO [DEX, dexamethasone] | 54.7 | 77.9 |  |  |  |  | 
2 | O=C1c2c(O)cc(O)cc2O[C@H](c2cc(O)c(O)c(O)c2)[C@H]1O [DMY, dihydromyricetin] |  |  | could increase the levels of signal-joint TRECs | shown to reduce the accounts of CD4+ and CD8+ cells | could be significantly reduced | could inhibit ear edema | significantly improve the thymic architecture

From patent US9018196B2, “Development of a new formulation overcoming thymus atrophy with concomitantly enhancement of anti-inflammatory effect of dexamethasone” (Macau University of Science and Technology, priority 2013, dated 2015)
